Assay results published in patent US11185100B2 (priority 2014, dated 2021).
Where two headings read alike, the source gives them in different places.

Experiments:
cat T1R1/T1R3 receptor = cat T1R1/T1R3 receptor (Felis catus, UniProt E3UMS2); experiment: cell-based; format: cell-based; details: for Max. resp. % of IMP: hek293 cells
Procedure, shortened: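 Umami receptor activation in HEK293 cells stably expressing T1R3 with inducible T1R1, exposed to nucleotide derivatives alone or combined with amino acids and/or nucleotides. Intracellular calcium read with a calcium-sensitive fluorescent dye and/or luminescent reporter; cells expressing T1R3 without T1R1 served as control.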

T1R1/T1R3 receptor [1] = biological target: T1, T1R1/T1R3 receptor (Felis catus, UniProt E3UMS2); experiment: Activation of T1R1/T1R3 receptor by transmembrane compounds and nucleotide derivatives, conducted as in Examples 1, 2 and 5 (Example 7); format: cell-based, cat; details: for Activity: modulation of T1R1/T1R3; for EC50: read-out: T1R1/T1R3 EC50
Text: (§1) Methods: HEK293 cells that stably express T1R3 and inducibly express T1R1 were exposed to nucleotide derivatives alone to activate the umami receptor. Activation of the T1R1/T1R3 receptor was detected by a change in intracellular calcium levels using a calcium sensitive fluorescent dye. Cells that express T1R3 but not T1R1 were used as a control. A FLIPR® Tetra or a FlexStation® 3 was used for data capture.
as §1, with “alone or in combination with one or more amino acids and/or one or more nucleotides” for “alone”, “dye and/or a luminescent reporter system.” for “dye.”
as §1, with “transmembrane compounds” for “nucleotide derivatives”, “alone or in combination with one or more amino acids and/or one or more nucleotides” for “alone”
(§2) In each experiment, serial dilutions of up to 10 mM of the transmembrane compound were added to the T1R1/T1R3-expressing cells.

T1R1/T1R3 receptor [2] = biological target: T1, T1R1/T1R3 receptor; experiment: Activation of T1R1/T1R3 receptor by transmembrane compounds alone or with alanine, IMP, GMP, phenylalanine; HEK293 cells, calcium fluorescence (Example 5); format: cell-based, cat; details: read-out: EC50 (effect with 0.2 mM IMP); Table 20 controls; in the presence of 0.2 mM IMP
Text: as §1, with “transmembrane compounds” for “nucleotide derivatives”, “alone or in combination with one or more amino acids and/or one or more nucleotides” for “alone”
as §2

SMILES | Max resp ΔF/F +Alanine (20 mM) (T1R1/T1R3 receptor [1]) | Thres +Alanine (20 mM) (T1R1/T1R3 receptor [1]) | Max resp % of Ala +IMP (0.2 mM) (T1R1/T1R3 receptor [1]; +IMP (0.2 mM)) | Max resp ΔF/F +IMP (0.2 mM) (T1R1/T1R3 receptor [1]; +IMP (0.2 mM)) | Max resp % of IMP +Alanine (20 mM) (T1R1/T1R3 receptor [1]; hek293 cells) | Activity (T1R1/T1R3 receptor [1]) | Thres +IMP (0.2 mM) (T1R1/T1R3 receptor [1]; +IMP (0.2 mM)) | further results
Nc1nc2c(ncn2[C@@H]2O[C@H](COP(=O)(O)OP(=O)(O)O)[C@@H](O)[C@H]2O)c(=S)[nH]1 [6-Thioguanosine-5′-O-diphosphate] | 1.0470 ΔF/F | 0.03 mM | 9.3 % of Ala | 0.0720 ΔF/F | 152.8 % of IMP | active |  | Max resp. (ΔF/F) (cat T1R1/T1R3 receptor): 1.047 ΔF/F; Threshold (cat T1R1/T1R3 receptor): 0.03 mM; Max. resp. % of IMP (cat T1R1/T1R3 receptor): 152.8 % of IMP; EC50 (cat T1R1/T1R3 receptor; in the presence of 20 mM alanine, read-out: EC50- with Ala): 180 ± 20 µM
C[C@H](N)C(=O)O [L-Alanine, reference compound] |  |  | 100.0 % of Ala | 0.7775 ΔF/F |  |  | 3.0 mM | EC50 (T1R1/T1R3 receptor [2]): 13600 ± 4300 µM; EC50 (cat T1R1/T1R3 receptor; read-out: EC50): 13600 ± 4300 µM
O=P(O)(O)OP(=O)(O)OP(=O)(O)OC[C@H]1O[C@@H](n2cnc3c(Cl)ncnc32)[C@H](O)[C@@H]1O [6-Chloropurine riboside-5′-O-triphosphate] |  |  | 30.2 % of Ala | 0.2350 ΔF/F |  | active | 0.003 mM | Max resp. (ΔF/F) (cat T1R1/T1R3 receptor): 0.345 ΔF/F; Threshold (cat T1R1/T1R3 receptor): 0.01 mM; Max. resp. % of IMP (cat T1R1/T1R3 receptor): 50.4 % of IMP; Max resp % of IMP +Alanine (20 mM) (T1R1/T1R3 receptor [1]; +Alanine (20 mM)): 50.4 % of IMP; Max resp ΔF/F +Alanine (20 mM) (T1R1/T1R3 receptor [1]; +Alanine (20 mM)): 0.3450 ΔF/F; Thres +Alanine (20 mM) (T1R1/T1R3 receptor [1]; +Alanine (20 mM)): 0.01 mM
CC(C)CC(NC(=O)c1ccccc1)C(N)=O (racemic) | 0.8600 ΔF/F | 0.3 mM | 204.5 % of Ala | 1.5900 ΔF/F | 125.5 % of IMP | active | 0.1 mM | EC50 (T1R1/T1R3 receptor [1]; +0.2 mM IMP): 470 ± 70 µM; EC50 (T1R1/T1R3 receptor [1]; alone in buffer): > 600 µM; EC50 (T1R1/T1R3 receptor [1]): > 1000 µM
N[C@@H](Cc1ccc(O)cc1)C(=O)O [L-Tyrosine, reference compound] |  |  | 38.0 % of Ala |  |  |  | 3.0 mM | Max resp ΔF/F +IMP (0.2 mM) (T1R1/T1R3 receptor [1]): 0.2958 ΔF/F
N[C@@H](Cc1c[nH]c2ccccc12)C(=O)O [L-Tryptophan, reference compound] |  |  | 86.8 % of Ala | 0.6750 ΔF/F |  |  | 0.1 mM | 
N[C@@H](Cc1ccccc1)C(=O)O [L-Phenylalanine, reference compound] |  |  | 75.9 % of Ala | 0.5900 ΔF/F |  |  | 0.1 mM | 
N[C@@H](CO)C(=O)O [L-Serine, reference compound] |  |  | 100.0 % of Ala | 0.7775 ΔF/F |  |  | 3.0 mM | 
O=C(NCCc1ccccc1)c1ccccc1 [N-phenethylbenzamide] | 0.1400 ΔF/F | 0.6 mM | 126.0 % of Ala | 0.9800 ΔF/F | 20.4 % of IMP | active | 0.01 mM | 
N[C@@H](Cc1c[nH]cn1)C(=O)O [L-Histidine, L-histidine, reference compound] |  |  | 36.3 % of Ala | 0.2825 ΔF/F |  |  | 10.0 mM | 
Nc1ccccc1C(=O)NCCc1ccccc1 [2-amino-N-phenethylbenzamide] | 0.6400 ΔF/F | 0.3 mM | 194.5 % of Ala | 1.5125 ΔF/F | 93.4 % of IMP | active | 0.01 mM | 
CSCC[C@H](N)C(=O)O [L-Methionine, reference compound] |  |  |  |  |  |  |  | Max resp ΔF/F +IMP (0.2 mM) (T1R1/T1R3 receptor [1]): 0.3500 ΔF/F; Thres +IMP (0.2 mM) (T1R1/T1R3 receptor [1]): 30.0 mM; Max resp % of Ala +IMP (0.2 mM) (T1R1/T1R3 receptor [1]; hek293 cells): 45.0 % of Ala
